Test results reported in patent US6914045B2, “Glycopeptide antibiotics” (Wyeth Holdings Corporation, priority 2001, dated 2005).
≈ marks a conversion by molar mass, not a printed value.

Key:
Experiment in all cases: in vitro antibacterial evaluation, MIC by broth dilution
Type in all cases: cell-based
[1] = tested on: Enterococcus sp.; settings: broth dilution, 18 hours at 35° C.
In short: (§1)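 Following National Committee for Clinical Laboratory Standards recommendations (M7-A2), susceptibility was measured by dilution in Muller-Hinton II […]. Bacteria were seeded at 5×10^5 CFU/mL against compound concentrations from 64 down to 0.06 μg/mL.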

[2] = tested on: Staphylococcus sp.; settings: broth dilution, 18 hours at 35° C.
In short: as §1

[3] = tested on: Streptococcus sp.; settings: broth dilution, 18 hours at 35° C.
In short: as §1

[4] = tested on: Escherichia coli; settings: 18 hours at 35° C.

- MIC Enterococcus avium (GC 4558) [1]: 16 µg/mL (≈ 11 µM)
- MIC Enterococcus faecalis (ATCC 29212) [1]: 32 µg/mL (≈ 22 µM)
- MIC Enterococcus faecalis (GC 2242) [1]: 32 µg/mL (≈ 22 µM)
- MIC Enterococcus faecalis (GC 2691) [1]: 32 µg/mL (≈ 22 µM)
- MIC Enterococcus faecalis (GC 3059) [1]: 32 µg/mL (≈ 22 µM)
- MIC Enterococcus faecalis (GC 4552) [1]: 32 µg/mL (≈ 22 µM)
- MIC Enterococcus faecalis (GC 4553) [1]: 32 µg/mL (≈ 22 µM)
- MIC Enterococcus faecalis (GC 4554) [1]: 32 µg/mL (≈ 22 µM)
- MIC Enterococcus faecalis (GC 6189) [1]: 32 µg/mL (≈ 22 µM)
- MIC Enterococcus faecium (GC 2243) [1]: 32 µg/mL (≈ 22 µM)
- MIC Enterococcus faecium (GC 4556) [1]: 32 µg/mL (≈ 22 µM)
- MIC Enterococcus faecium (GC 4557) [1]: 16 µg/mL (≈ 11 µM)
- MIC Enterococcus faecalis (ATCC 29212) ([1]; strain ATCC 29212): 32 µg/mL (≈ 22 µM)
- MIC Enterococcus faecium (GC 2243) ([1]; strain GC 2243): 32 µg/mL (≈ 22 µM)
- MIC Enterococcus faecalis (GC 4552) ([1]; strain GC 4552): 32 µg/mL (≈ 22 µM)
- MIC Enterococcus faecalis (GC 4553) ([1]; strain GC 4553): 32 µg/mL (≈ 22 µM)
- MIC Enterococcus faecalis (GC 4554) ([1]; strain GC 4554): 32 µg/mL (≈ 22 µM)
- MIC Enterococcus faecium (GC 4556) ([1]; strain GC 4556): 32 µg/mL (≈ 22 µM)
- MIC Enterococcus faecium (GC 4557) ([1]; strain GC 4557): 16 µg/mL (≈ 11 µM)
- MIC Enterococcus avium (GC 4558) ([1]; strain GC 4558): 16 µg/mL (≈ 11 µM)
- MIC Enterococcus faecalis (GC 6189) ([1]; strain GC 6189): 32 µg/mL (≈ 22 µM)
- MIC Enterococcus faecalis (GC 2242) ([1]; inoculum 5×10^5 CFU/mL, strain GC 2242): 32 µg/mL (≈ 22 µM)
- MIC Enterococcus faecalis (GC 2691) ([1]; inoculum 5×10^5 CFU/mL, strain GC 2691): 32 µg/mL (≈ 22 µM)
- MIC Enterococcus faecalis (GC 3059) ([1]; inoculum 5×10^5 CFU/mL, strain GC 3059): 32 µg/mL (≈ 22 µM)
- MIC Coagulase Negative Staphylococcus (GC 4547) [2]: 32 µg/mL (≈ 22 µM)
- MIC Coagulase Negative Staphylococcus (GC 4548) [2]: 32 µg/mL (≈ 22 µM)
- MIC Coagulase Negative Staphylococcus (GC 4549) [2]: 16 µg/mL (≈ 11 µM)
- MIC Coagulase Negative Staphylococcus (GC 4551) [2]: 32 µg/mL (≈ 22 µM)
- MIC Coagulase Negative Staphylococcus (GC 6257) [2]: 16 µg/mL (≈ 11 µM)
- MIC Staphylococcus aureus (ATCC 29213) [2]: 32 µg/mL (≈ 22 µM)
- MIC Staphylococcus aureus (GC 1131) [2]: 32 µg/mL (≈ 22 µM)
- MIC Staphylococcus aureus (GC 3051) [2]: 32 µg/mL (≈ 22 µM)
- MIC Staphylococcus aureus (GC 3053) [2]: 32 µg/mL (≈ 22 µM)
- MIC Staphylococcus aureus (GC 4541) [2]: 32 µg/mL (≈ 22 µM)
- MIC Staphylococcus aureus (GC 4542) [2]: 32 µg/mL (≈ 22 µM)
- MIC Staphylococcus aureus (GC 4544) [2]: 32 µg/mL (≈ 22 µM)
- MIC Staphylococcus aureus (GC 4545) [2]: 32 µg/mL (≈ 22 µM)
- MIC Staphylococcus aureus-SMITH (GC 4543) [2]: 32 µg/mL (≈ 22 µM)
- MIC Staphylococcus aureus (ATCC 29213) ([2]; strain ATCC 29213): 32 µg/mL (≈ 22 µM)
- MIC Staphylococcus aureus (GC 1131) ([2]; strain GC 1131): 32 µg/mL (≈ 22 µM)
- MIC Staphylococcus aureus (GC 3051) ([2]; strain GC 3051): 32 µg/mL (≈ 22 µM)
- MIC Staphylococcus aureus (GC 3053) ([2]; strain GC 3053): 32 µg/mL (≈ 22 µM)
- MIC Staphylococcus aureus (GC 4541) ([2]; strain GC 4541): 32 µg/mL (≈ 22 µM)
- MIC Staphylococcus aureus (GC 4542) ([2]; strain GC 4542): 32 µg/mL (≈ 22 µM)
- MIC Staphylococcus aureus-SMITH (GC 4543) ([2]; strain GC 4543): 32 µg/mL (≈ 22 µM)
- MIC Staphylococcus aureus (GC 4544) ([2]; strain GC 4544): 32 µg/mL (≈ 22 µM)
- MIC Staphylococcus aureus (GC 4545) ([2]; strain GC 4545): 32 µg/mL (≈ 22 µM)
- MIC Coagulase Negative Staphylococcus (GC 4547) ([2]; strain GC 4547): 32 µg/mL (≈ 22 µM)
- MIC Coagulase Negative Staphylococcus (GC 4548) ([2]; strain GC 4548): 32 µg/mL (≈ 22 µM)
- MIC Coagulase Negative Staphylococcus (GC 4549) ([2]; strain GC 4549): 16 µg/mL (≈ 11 µM)
- MIC Coagulase Negative Staphylococcus (GC 4551) ([2]; strain GC 4551): 32 µg/mL (≈ 22 µM)
- MIC Coagulase Negative Staphylococcus (GC 6257) ([2]; strain GC 6257): 16 µg/mL (≈ 11 µM)
- MIC Streptococcus agalactiae (GC 4564) [3]: 16 µg/mL (≈ 11 µM)
- MIC Streptococcus pneumoniae (ATCC 6301) [3]: 16 µg/mL (≈ 11 µM)
- MIC Streptococcus pneumoniae (GC 1894) [3]: 1 µg/mL (≈ 0.688 µM)
- MIC Streptococcus pneumoniae (GC 4565) [3]: 2 µg/mL (≈ 1.38 µM)
- MIC Streptococcus pyogenes (GC 4563) [3]: 8 µg/mL (≈ 5.5 µM)
- MIC Streptococcus pneumoniae (ATCC 6301) ([3]; inoculum 5×10^5 CFU/mL, strain ATCC 6301): 16 µg/mL (≈ 11 µM)
- MIC Streptococcus pneumoniae (GC 1894) ([3]; inoculum 5×10^5 CFU/mL, strain GC 1894): 1 µg/mL (≈ 0.688 µM)
- MIC Streptococcus pyogenes (GC 4563) ([3]; inoculum 5×10^5 CFU/mL, strain GC 4563): 8 µg/mL (≈ 5.5 µM)
- MIC Streptococcus agalactiae (GC 4564) ([3]; inoculum 5×10^5 CFU/mL, strain GC 4564): 16 µg/mL (≈ 11 µM)
- MIC Streptococcus pneumoniae (GC 4565) ([3]; inoculum 5×10^5 CFU/mL, strain GC 4565): 2 µg/mL (≈ 1.38 µM)
- MIC Escherichia coli (ATCC 25922) [4]: >64 µg/mL
- MIC Escherichia coli (GC 4559) [4]: >64 µg/mL
- MIC Escherichia coli (GC 4560) [4]: 32 µg/mL (≈ 22 µM)
Compound: CC(c1ccccc1)C1NC(=O)CNC(=O)C(CO)NC(=O)C(C(O)C2CNC(=N)N2C2OC(CO)C(O)C(O)C2O)NC(=O)C(C(O)C2CNC(=N)N2)NC(=O)C(Cc2ccc(OC3OC(CO)C(OC4OC(CO)C(OCC=Cc5ccc(N(C)C)cc5)C(O)C4O)C(O)C3O)cc2)NC1=O (stereo not shown) [Example 243a]
- MIC Staphylococcus haemolyticus (GC 4546) [2]: 32 µg/mL (≈ 22 µM)
- MIC Staphylococcus haemolyticus (GC 4546) ([2]; strain GC 4546): 32 µg/mL (≈ 22 µM)
